Assay results: US5731155A, “Compositions for inhibition of intracellular transcription factors and methods therefor” (Washington University, priority 1996, dated 1998)
“Also recorded” adds a separate entry of the source. Where a SMILES comes first, the peptide text is derived from it. [ ]: non-standard residue; d: D form. The star is where a group is joined. Biotin = O=C1N[C@H]2[C@H](CS[C@H]2CCCCC(=O)*)N1; pY = N[C@@H](Cc1ccc(OP(=O)(O)O)cc1)C(=O)O; Ahx = NCCCCCC(=O)O

Assays:
STAT3 [1] = target: T1, STAT3 (Mus musculus, UniProt P42227); experiment: Precipitation of STAT3 from BaMR cytosolic homogenates with biotinylated IL-10 receptor peptides; format: binding; conditions: for precipitation of / binding to the 92 kD STAT3 protein: biotinylated 12 amino acid peptides, BaMR cytosolic homogenates; for concentration of biotinylated peptide sufficient to precipitate STAT3 (comparable amounts): increasing peptide concentrations, data not shown
T1 construct: Cytosolic homogenates of BaMR cells were precipitated with the biotinylated 12 amino acid peptides; endogenous in cells; host or cells: BaMR (BaF3 pre-B cells transfected with the IL-10 receptor) homogenates
Description: Aminoterminally biotinylated peptides were synthesized comprising 12 amino acids in which the peptides each contained a different region of the IL-10 receptor intracellular domain containing a tyrosine residue. These peptides corresponded to positions 370 to 381 (SEQ ID NO:26, Gln-Gln-Leu-Gly-Xaa-His-Gln-Asp-Gln-Asp-Asp-Ser), 392-403 (SEQ ID NO:27, Gly-Gln-Pro-Lys-Xaa-Thr-Gln-Asp-Ala-Ser-Asp-Leu), 423 to 434 (SEQ ID NO:24, Thr-Phe-Gln-Gly-Xaa-Gln-Lys-Gln-Thr-Arg-Trp-Lys) and 473 to 484 (SEQ ID NO:25, Leu-Ala-Ala-Gly-Xaa-Leu-Lys-Gln-Glu-Ser-Gln-Gly) in which the amino acids identified in the sequence as Xaa in positions 374, 396, 427, and 477 of the respectively peptides are phosphorylated tyrosines. In addition, the sequences 423 to 434 (SEQ ID NO:28, Thr-Phe-Gln-Gly-Tyr-Gln-Lys-Gln-Thr-Arg-Trp-Lys) and 473 to 484 (SEQ ID NO:29, Leu-Ala-Ala-Gly-Tyr-Leu-Lys-Gln-Glu-Ser-Gln-Gly) contained the non-phosphorylated tyrosines in the positions 427, and 477 of the IL-10 receptor intracellular domain. Cytosolic homogenates of BaMR cells were precipitated with the biotinylated 12 amino acid peptides. […] In contrast to this, no binding to the STAT3 transcription factor occurred with the peptides containing phosphorylated tyrosines in positions 374 (SEQ ID NO:26) and 396 (SEQ ID NO:27), the peptides containing non-phosphorylated tyrosines in positions 427 (SEQ ID NO:28) and 477 (SEQ ID NO:29) and the phosphorylated peptide corresponding to the amino acid sequences 436 to 447 of the IFNγ receptor α chain intracellular domain (FIG. 10). Whereas both the 427 and the 477 phosphopeptides precipitated the STAT3 transcription factor, none of the phosphopeptides coprecipitated STAT1.

STAT3 [2] = target: T1, STAT3; experiment: Inhibition of IL-10 dependent STAT3 phosphorylation in BaMR cell homogenates; format: biochemical; conditions: for effect on IL-10 dependent phosphorylation of STAT3: peptide 100 μM, 45 minutes at 4° C., then 100 ng/ml IL-10
Description: BaMR cell homogenates were prepared in a Dounce homogenizer and 18 μg of total protein was incubated without or with IL-10 at a concentration of 100 ng/ml for 15 minutes at 37° C. (FIG. 11, lanes 1 and 2). In lanes 3-8, 18 μg total protein of the BaMR homogenates was incubated for 45 minutes at 4° C. with a 100 μM concentration of the IL-10-receptor peptides having phosphorylated tyrosines at positions 374 (SEQ ID NO:26), 396 (SEQ ID NO:27), 427(SEQ ID NO:24), and 477(SEQ ID NO:25) (lanes 3-6) or 100 μM concentration of the non phosphorylated peptides having tyrosines at positions 427 (SEQ ID NO:28) and 477 (SEQ ID NO:29). Reaction mixtures were stimulated with 100 ng/ml IL-10 as described above and homogenates were precipitated with STAT3 or STAT1 specific antisera. Precipitates were blotted with phosphotyrosine specific antibody RC-20 and reactions developed using the ECL-system. Blots were stripped and reblotted with STAT3 and STAT1 specific antisera, respectively.

IFNγ receptor α chain = experiment: IFNγ dependent tyrosine phosphorylation of the IFNγ receptor α chain in Colo-205 cells (4G10 western blot); format: cell-based, human; conditions: Colo-205 treated for 5 minutes
Description: For these experiments, Colo-205, a human adenocarcinoma cell line obtained from the ATCC, was used because it was known to express a high number of IFNγ receptors (10,000 receptors/cell) and has been well characterized with regard to both biologic responsiveness to IFNγ and IFNγ receptor […] phosphorylation (Hershey and Schreiber, 1989; Hershey et al., 1990 both of which are incorporated by reference). Colo-205 cells (5-10×10^7) were resuspended in one ml of PBS-10% FCS and were then incubated at 37° C., either in the presence or absence of rHuIFNγ (10,000 IRU). Purified recombinant human IFNγ was provided by Dr. Susan Kramer of Genentech, Inc. (South San Francisco, Calif.). […] Purified rHuIFNγ was radioiodinated, using Bolton Hunter reagent (ICN Chemicals, Radioisotope Division, Irvine, Calif.) to specific activities of 6.5-17.8 μCi/μg as described in Celada et al. (J Clin Invest 76:2196-2205, 1985 which is incorporated by reference). The reaction was stopped by adding 4 mls of ice-cold PBS. Cells were pelleted, washed once in ice-cold PBS, and then lysed in one ml of lysis buffer (25 mM Tris-HCl (pH 8.0), 1% NP-40, 150 mM NaCl, 1 mM sodium orthovanadate, 10 mM NaF, 1 mM PMSF, 5mM iodoacetamide, […] leupeptin and aprotinin). Solubilized cells were centrifuged at 15,000×g to remove cell nuclei and the supernatants were then incubated with 10 μg of GIR-94 for 30 minutes at 4° C. Protein G sepharose was added to the reaction mixture and the incubation continued for an additional 30 minutes. […]
To determine the amount of receptor precipitated at each time point, aliquots from each immunoprecipitate were subjected to western blot analysis using a monoclonal antibody (GIR-94, a murine antibody IgG2b) that is specific for the human IFNγ receptor extracellular domain. In the absence of added IFNγ, no tyrosine phosphorylated receptor was detected (FIG. 1, lane 1). […]

T1 sequence (P42227 whole entry): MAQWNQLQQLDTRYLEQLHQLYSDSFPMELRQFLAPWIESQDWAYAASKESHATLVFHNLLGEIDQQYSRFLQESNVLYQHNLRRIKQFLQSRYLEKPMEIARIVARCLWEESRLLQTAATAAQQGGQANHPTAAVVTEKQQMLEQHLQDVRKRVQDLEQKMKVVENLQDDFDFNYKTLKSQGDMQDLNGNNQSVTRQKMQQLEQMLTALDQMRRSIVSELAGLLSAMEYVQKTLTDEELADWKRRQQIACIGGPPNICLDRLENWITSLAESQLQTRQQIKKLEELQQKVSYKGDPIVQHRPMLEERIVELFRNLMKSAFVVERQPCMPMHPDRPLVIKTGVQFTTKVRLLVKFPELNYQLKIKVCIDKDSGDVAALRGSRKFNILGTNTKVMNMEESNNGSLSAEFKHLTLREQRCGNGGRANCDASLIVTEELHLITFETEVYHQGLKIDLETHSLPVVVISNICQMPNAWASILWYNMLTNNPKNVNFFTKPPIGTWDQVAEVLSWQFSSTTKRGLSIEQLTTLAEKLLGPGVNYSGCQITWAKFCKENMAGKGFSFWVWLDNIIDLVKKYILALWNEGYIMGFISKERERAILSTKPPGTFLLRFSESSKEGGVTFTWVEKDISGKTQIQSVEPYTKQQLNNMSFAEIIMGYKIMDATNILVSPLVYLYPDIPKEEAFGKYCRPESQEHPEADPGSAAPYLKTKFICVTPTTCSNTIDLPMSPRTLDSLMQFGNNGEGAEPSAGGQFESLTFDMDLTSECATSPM

## CC(C)C[C@H](NC(=O)[C@@H](NC(=O)[C@H](Cc1c[nH]cn1)NC(=O)[C@@H]1CCCN1C(=O)[C@H](CCCCN)NC(=O)[C@H](CC(=O)O)NC(=O)[C@H](Cc1ccc(OP(=O)(O)O)cc1)NC(=O)CNC(=O)[C@H](Cc1ccccc1)NC(=O)[C@H](CO)NC(=O)[C@@H](NC(=O)CCCCCNC(=O)CCCC[C@@H]1SC[C@@H]2NC(=O)N[C@@H]21)[C@@H](C)O)C(C)C)C(=O)N[C@H](C(=O)O)C(C)C [SEQ ID NO:4, Biotin-TSFGY-PO4 DKPHVLV] ({Biotin-Ahx}-TSFG[pY]DKPHVLV-OH)
STAT3 [1]
  precipitation of / binding to the 92 kD STAT3 protein: no binding

## CC(C)C[C@H](NC(=O)[C@H](CCC(N)=O)NC(=O)[C@H](CCC(N)=O)NC(=O)CCCCCNC(=O)CCCC[C@@H]1SC[C@@H]2NC(=O)N[C@@H]21)C(=O)NCC(=O)N[C@@H](Cc1ccc(OP(=O)(O)O)cc1)C(=O)N[C@@H](Cc1c[nH]cn1)C(=O)N[C@@H](CCC(N)=O)C(=O)N[C@@H](CC(=O)O)C(=O)N[C@@H](CCC(N)=O)C(=O)N[C@@H](CC(=O)O)C(=O)N[C@@H](CC(=O)O)C(=O)N[C@@H](CO)C(=O)O [SEQ ID NO:26, Gln-Gln-Leu-Gly-Xaa-His-Gln-Asp-Gln-Asp-Asp-Ser] ({Biotin-Ahx}-QQLG[pY]HQDQDDS-OH)
STAT3 [1]
  precipitation of / binding to the 92 kD STAT3 protein: no binding

## CC(C)C[C@H](NC(=O)[C@H](CC(=O)O)NC(=O)[C@H](CO)NC(=O)[C@H](C)NC(=O)[C@H](CC(=O)O)NC(=O)[C@H](CCC(N)=O)NC(=O)[C@@H](NC(=O)[C@H](Cc1ccc(OP(=O)(O)O)cc1)NC(=O)[C@H](CCCCN)NC(=O)[C@@H]1CCCN1C(=O)[C@H](CCC(N)=O)NC(=O)CNC(=O)CCCCCNC(=O)CCCC[C@@H]1SC[C@@H]2NC(=O)N[C@@H]21)[C@@H](C)O)C(=O)O [SEQ ID NO:27, Gly-Gln-Pro-Lys-Xaa-Thr-Gln-Asp-Ala-Ser-Asp-Leu] ({Biotin-Ahx}-GQPK[pY]TQDASDL-OH)
STAT3 [1]
  precipitation of / binding to the 92 kD STAT3 protein: no binding

## C[C@@H](O)[C@H](NC(=O)CCCCCNC(=O)CCCC[C@@H]1SC[C@@H]2NC(=O)N[C@@H]21)C(=O)N[C@@H](Cc1ccccc1)C(=O)N[C@@H](CCC(N)=O)C(=O)NCC(=O)N[C@@H](Cc1ccc(O)cc1)C(=O)N[C@@H](CCC(N)=O)C(=O)N[C@@H](CCCCN)C(=O)N[C@@H](CCC(N)=O)C(=O)N[C@H](C(=O)N[C@@H](CCCNC(=N)N)C(=O)N[C@@H](Cc1c[nH]c2ccccc12)C(=O)N[C@@H](CCCCN)C(=O)O)[C@@H](C)O [SEQ ID NO:28, Thr-Phe-Gln-Gly-Tyr-Gln-Lys-Gln-Thr-Arg-Trp-Lys] ({Biotin-Ahx}-TFQGYQKQTRWK-OH)
STAT3 [1]
  precipitation of / binding to the 92 kD STAT3 protein: no binding

## CC(C)C[C@H](NC(=O)CCCCCNC(=O)CCCC[C@@H]1SC[C@@H]2NC(=O)N[C@@H]21)C(=O)N[C@@H](C)C(=O)N[C@@H](C)C(=O)NCC(=O)N[C@@H](Cc1ccc(O)cc1)C(=O)N[C@@H](CC(C)C)C(=O)N[C@@H](CCCCN)C(=O)N[C@@H](CCC(N)=O)C(=O)N[C@@H](CCC(=O)O)C(=O)N[C@@H](CO)C(=O)N[C@@H](CCC(N)=O)C(=O)NCC(=O)O [SEQ ID NO:29, Leu-Ala-Ala-Gly-Tyr-Leu-Lys-Gln-Glu-Ser-Gln-Gly] ({Biotin-Ahx}-LAAGYLKQESQG-OH)
STAT3 [1]
  precipitation of / binding to the 92 kD STAT3 protein: no binding

## Leu-Ala-Ala-Gly-Xaa-Leu-Lys-Gln-Glu-Ser-Gln-Gly [SEQ ID NO:25]
STAT3 [1]
  precipitation of / binding to the 92 kD STAT3 protein: specifically precipitated; also recorded: coprecipitated
  concentration of biotinylated peptide sufficient to precipitate STAT3 (comparable amounts): 4 to 20 µM
STAT3 [2]
  effect on IL-10 dependent phosphorylation of STAT3: specifically inhibited

## Thr-Phe-Gln-Gly-Xaa-Gln-Lys-Gln-Thr-Arg-Trp-Lys [SEQ ID NO:24]
STAT3 [1]
  precipitation of / binding to the 92 kD STAT3 protein: specifically precipitated; also recorded: coprecipitated
  concentration of biotinylated peptide sufficient to precipitate STAT3 (comparable amounts): 0.8 µM
STAT3 [2]; concentration-dependent inhibition, FIG. 12
  potency in inhibiting STAT3 phosphorylation relative to SEQ ID NO:25: 5 to 10 fold
STAT3 [2]
  effect on IL-10 dependent phosphorylation of STAT3: specifically inhibited

## rHuIFNγ: Purified recombinant human IFNγ provided by Genentech, Inc.
IFNγ receptor α chain
  IFNγ dose at which IFNγ receptor tyrosine phosphorylation reached maximal levels: 10,000 IRU/ml
  IFNγ dose at which IFNγ receptor tyrosine phosphorylation was detected: 100 IRU/ml
